Reference: the supplement of paper PMC11061612

Key:
Test in all cases: combination Emax (second highest fraction inhibited in the dose matrix, 72 h); higher = more inhibition; extreme values may be limits of the assay
[1] = system: BHT-101 (Thyroid Gland Carcinoma)
Procedure, shortened: (§1)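 Cell lines grown in DMEM/F12 or RPMI with 10% FBS were plated in 1536-well plates and held 24 hours at 37°C, 5% CO2 before 72 hours of exposure to two-drug dose matrices, with DMSO typically at 0.2%. CellTiter-Glo 2.0 luminescence gave viability, which was converted to inhibition. Vehicle wells were set to 0 and blank wells to 1. Combination Emax is the second-highest inhibition in the matrix, and Bliss excess is the observed combination effect minus the expected EA + EB − EA·EB, where EA and EB are the single-agent effects.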

[2] = system: C-33-A (Cervical Carcinoma)
Procedure, shortened: as §1

[3] = system: COR-L88 (Small Cell Lung Carcinoma)
Procedure, shortened: as §1

[4] = system: DBTRG-05MG (Glioblastoma)
Procedure, shortened: as §1

IST-MEL1 (Melanoma) = system: IST-MEL1 (Melanoma)
Procedure, shortened: as §1

[5] = system: KP-4 (Pancreatic Carcinoma)
Procedure, shortened: as §1

[6] = system: LS-1034 (Colorectal Carcinoma)
Procedure, shortened: as §1

[7] = system: MM1S (Plasma Cell Myeloma)
Procedure, shortened: as §1

[8] = system: NCI-H1341 (Small Cell Lung Carcinoma)
Procedure, shortened: as §1

NCI-H2373 (Mesothelioma) = system: NCI-H2373 (Mesothelioma)
Procedure, shortened: as §1

[9] = system: NCI-H596 (Other Solid Carcinomas)
Procedure, shortened: as §1

[10] = system: NMC-G1 (Low Grade Glioma)
Procedure, shortened: as §1

[11] = system: OAW-28 (Ovarian Carcinoma)
Procedure, shortened: as §1

[12] = system: OVCAR-3 (Ovarian Carcinoma)
Procedure, shortened: as §1

[13] = system: SCC-4 (Oral Cavity Carcinoma)
Procedure, shortened: as §1

[14] = system: SKG-IIIa (Cervical Carcinoma)
Procedure, shortened: as §1

[15] = system: SNU-C2B (Colorectal Carcinoma)
Procedure, shortened: as §1

T47D (Breast Carcinoma) = system: T47D (Breast Carcinoma)
Procedure, shortened: as §1

UACC-257 (Melanoma) = system: UACC-257 (Melanoma)
Procedure, shortened: as §1

WM35 (Melanoma) = system: WM35 (Melanoma)
Procedure, shortened: as §1

Structure (SMILES)	combination Emax [1]	combination Emax [2]	combination Emax [3]	combination Emax [4]	combination Emax (IST-MEL1 (Melanoma))	combination Emax [5]	combination Emax [6]	combination Emax [7]	combination Emax [8]	combination Emax (NCI-H2373 (Mesothelioma))	combination Emax [9]	combination Emax [10]	combination Emax [11]	combination Emax [12]	combination Emax [13]	combination Emax [14]	combination Emax [15]	combination Emax (T47D (Breast Carcinoma))	combination Emax (UACC-257 (Melanoma))	combination Emax (WM35 (Melanoma))
Cc1cc2ncnn2cc1Nc1ncc2c(n1)n(C1CCOCC1)c(=O)n2C [AZD7648] + C=CCn1c(=O)c2cnc(Nc3ccc(N4CCN(C)CC4)cc3)nc2n1-c1cccc(C(C)(C)O)n1 [AZD1775] (first compound max 10 µM, partner max 1 µM)	0.471	0.93	0.545	0.343	0.577	0.59	0.379	0.811	0.69	0.484	0.357	0.327	0.401	0.411	0.466	0.43	0.551	0.468	0.226	0.294
CC1(C)CCC(CN2CCN(c3ccc(C(=O)NS(=O)(=O)c4ccc(NCC5CCOCC5)c([N+](=O)[O-])c4)c(Oc4cnc5[nH]ccc5c4)c3)CC2)=C(c2ccc(Cl)cc2)C1 [Venetoclax] + Cn1cnc2c(F)c(Nc3ccc(Br)cc3Cl)c(C(=O)NOCCO)cc21 [Selumetinib] (first compound max 1 µM, 7x7, partner max 3 µM)	0.686	0.324	0.543	0.285	0.415	0.131	0.537	0.306	0.432	0.295	0.222	0.175	0.284	0.126	0.164	0.127	0.27	0.0758	0.621	0.757
CN(CCO)CC[C@H](CSc1ccccc1)Nc1ccc(S(=O)(=O)NC(=O)c2ccc(N3CCC([C@@H](O)c4ccccc4-c4ccc(Cl)cc4)CC3)cc2)cc1S(=O)(=O)C(F)(F)F [AZD4320] + C[C@@H](Nc1cc(F)cc(F)c1)c1cc(C(=O)N(C)C)cc2c(=O)cc(N3CCOCC3)oc12 [AZD8186] (first compound max 1 µM, 7x7, partner max 3 µM)	0.616	0.515	0.966	0.935	0.405	0.273	0.334	0.988	0.99	0.48	0.381	0.814	0.991	0.512	0.765	0.471	0.374	0.439	0.269	0.561
Cc1c2c(nn1C)CSCc1cc(n(C)n1)CSc1cc(c3ccccc3c1)OCCCc1c(C(=O)O)n(C)c3c-2c(Cl)ccc13 [AZD5991] + CC1(C)CCC(CN2CCN(c3ccc(C(=O)NS(=O)(=O)c4ccc(NCC5CCOCC5)c([N+](=O)[O-])c4)c(Oc4cnc5[nH]ccc5c4)c3)CC2)=C(c2ccc(Cl)cc2)C1 [Venetoclax] (first compound max 1 µM, 7x7, partner max 1 µM)	0.587	0.484	0.817	0.158	0.2	0.157	0.152	0.99	0.634	0.161	0.289	0.157	0.687	0.171	0.345	0.251	0.201	0.434	0.308	0.243
COc1cccc(OCCCN)c1-c1cc(Nc2cnc(C#N)cn2)n[nH]1 [Prexasertib] + CN(C)CCCOc1ccc(-c2ccc3ncc4c(c3c2)n(C2CCOCC2)c(=O)n4C)cn1 [AZD0156] (first compound max 1 µM, 7x7, partner max 1 µM)	0.799	0.842	0.843	0.409	0.75	0.434	0.724	0.847	0.869	0.423	0.414	0.362	0.563	0.758	0.63	0.389	0.622	0.426	0.364	0.845
COc1cc2c(cc1OCCCCCOc1cc3c(cc1OC)C(=O)N1C=C(C)C[C@H]1C=N3)N=C[C@@H]1CC(C)=CN1C2=O [SG3199] + O=C(c1cc(Cc2n[nH]c(=O)c3ccccc23)ccc1F)N1CCN(C(=O)C2CC2)CC1 [Olaparib] (first compound max 0.001 µM, 7x7, partner max 10 µM)	0.193	0.189	0.237	0.114	0.181	0.0915	0.0272	0.293	0.193	0.242	0.202	0.183	0.245	0.127	0.0768	0.144	0.249	0.164	0.0273	0.144
Cc1cc2ncnn2cc1Nc1ncc2c(n1)n(C1CCOCC1)c(=O)n2C [AZD7648] + C[C@@H]1COCCN1C2=NC(=NC(=C2)C3(CC3)[S@](=N)(=O)C)C4=C5C=CNC5=NC=C4 [AZD6738] (first compound max 10 µM, 7x7, partner max 10 µM)	0.626	0.913	0.713	0.306	0.777	0.44	0.696	0.592	0.801	0.674	0.365	0.31	0.42	0.233	0.575	0.318	0.63	0.464	0.15	0.497
CN(CCO)CC[C@H](CSc1ccccc1)Nc1ccc(S(=O)(=O)NC(=O)c2ccc(N3CCC([C@@H](O)c4ccccc4-c4ccc(Cl)cc4)CC3)cc2)cc1S(=O)(=O)C(F)(F)F [AZD4320] + CCN(CCO)CCCOc1ccc2c(Nc3cc(CC(=O)Nc4cccc(F)c4)[nH]n3)ncnc2c1 [AZD2811] (first compound max 1 µM, 7x7, partner max 1 µM)	0.279	0.151	0.974	0.775	0.407	0.368	0.251	1	1	0.125	0.289	0.718	0.958	0.234	0.861	0.191	0.168	0.335	0.161	0.136
C=CCn1c(=O)c2cnc(Nc3ccc(N4CCN(C)CC4)cc3)nc2n1-c1cccc(C(C)(C)O)n1 [AZD1775] + O=C(c1cc(Cc2n[nH]c(=O)c3ccccc23)ccc1F)N1CCN(C(=O)C2CC2)CC1 [Olaparib] (first compound max 1 µM, partner max 10 µM)	0.406	0.914	0.594	0.248	0.49	0.721	0.372	0.779	0.525	0.354	0.431	0.431	0.251	0.532	0.496	0.369	0.601	0.362	0.166	0.303
CN(CCO)CC[C@H](CSc1ccccc1)Nc1ccc(S(=O)(=O)NC(=O)c2ccc(N3CCC([C@@H](O)c4ccccc4-c4ccc(Cl)cc4)CC3)cc2)cc1S(=O)(=O)C(F)(F)F [AZD4320] + C=CCn1c(=O)c2cnc(Nc3ccc(N4CCN(C)CC4)cc3)nc2n1-c1cccc(C(C)(C)O)n1 [AZD1775] (first compound max 1 µM, partner max 1 µM)	0.659	0.953	0.978	0.92	0.85	0.716	0.371	1	1	0.404	0.318	0.785	0.966	0.828	0.872	0.426	0.79	0.195	0.103	0.331
Cc1c2c(nn1C)CSCc1cc(n(C)n1)CSc1cc(c3ccccc3c1)OCCCc1c(C(=O)O)n(C)c3c-2c(Cl)ccc13 [AZD5991] + Cn1cnc2c(F)c(Nc3ccc(Br)cc3Cl)c(C(=O)NOCCO)cc21 [Selumetinib] (first compound max 1 µM, 7x7, partner max 3 µM)	0.913	0.365	0.17	0.344	0.395	0.226	0.587	0.998	0.496	0.318	0.241	0.31	0.352	0.218	0.839	0.24	0.356	0.364	0.817	0.929
CC1(C)CCC(CN2CCN(c3ccc(C(=O)NS(=O)(=O)c4ccc(NCC5CCOCC5)c([N+](=O)[O-])c4)c(Oc4cnc5[nH]ccc5c4)c3)CC2)=C(c2ccc(Cl)cc2)C1 [Venetoclax] + CCN(CCO)CCCOc1ccc2c(Nc3cc(CC(=O)Nc4cccc(F)c4)[nH]n3)ncnc2c1 [AZD2811] (first compound max 1 µM, 7x7, partner max 1 µM)	0.157	0.312	0.667	0.228	0.504	0.322	0.114	0.265	0.495	0.232	0.207	0.229	0.314	0.194	0.429	0.229	0.185	0.266	0.226	0.152
